Measurements taken from article PMC4979471 (Cell Death Discovery, 2015).
Read-outs that look alike come from different tables or passages of the source.

How the values were obtained:
Test in all cases: Kinase selectivity, P33-radiolabeled assay
Type in all cases: biochemical
Details in all cases: 10 μM ATP
ALK3/BMPR1A = target: T1, ALK3/BMPR1A (Homo sapiens, UniProt P36894)
T1 construct: purchased Reaction Biology Corp
How it was run: (§1)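 Activity relative to DMSO controls (%) was measured for compound at 10 μM. Assays ran at 10 μM ATP, in duplicate.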

CLK3 = target: T2, CLK3 (Homo sapiens, UniProt P49761)
T2 construct: purchased Reaction Biology Corp
How it was run: as §1

EPHA3 = target: T3, EPHA3 (Homo sapiens, UniProt P29320)
T3 construct: purchased Reaction Biology Corp
T3 sequence (P29320 21-983): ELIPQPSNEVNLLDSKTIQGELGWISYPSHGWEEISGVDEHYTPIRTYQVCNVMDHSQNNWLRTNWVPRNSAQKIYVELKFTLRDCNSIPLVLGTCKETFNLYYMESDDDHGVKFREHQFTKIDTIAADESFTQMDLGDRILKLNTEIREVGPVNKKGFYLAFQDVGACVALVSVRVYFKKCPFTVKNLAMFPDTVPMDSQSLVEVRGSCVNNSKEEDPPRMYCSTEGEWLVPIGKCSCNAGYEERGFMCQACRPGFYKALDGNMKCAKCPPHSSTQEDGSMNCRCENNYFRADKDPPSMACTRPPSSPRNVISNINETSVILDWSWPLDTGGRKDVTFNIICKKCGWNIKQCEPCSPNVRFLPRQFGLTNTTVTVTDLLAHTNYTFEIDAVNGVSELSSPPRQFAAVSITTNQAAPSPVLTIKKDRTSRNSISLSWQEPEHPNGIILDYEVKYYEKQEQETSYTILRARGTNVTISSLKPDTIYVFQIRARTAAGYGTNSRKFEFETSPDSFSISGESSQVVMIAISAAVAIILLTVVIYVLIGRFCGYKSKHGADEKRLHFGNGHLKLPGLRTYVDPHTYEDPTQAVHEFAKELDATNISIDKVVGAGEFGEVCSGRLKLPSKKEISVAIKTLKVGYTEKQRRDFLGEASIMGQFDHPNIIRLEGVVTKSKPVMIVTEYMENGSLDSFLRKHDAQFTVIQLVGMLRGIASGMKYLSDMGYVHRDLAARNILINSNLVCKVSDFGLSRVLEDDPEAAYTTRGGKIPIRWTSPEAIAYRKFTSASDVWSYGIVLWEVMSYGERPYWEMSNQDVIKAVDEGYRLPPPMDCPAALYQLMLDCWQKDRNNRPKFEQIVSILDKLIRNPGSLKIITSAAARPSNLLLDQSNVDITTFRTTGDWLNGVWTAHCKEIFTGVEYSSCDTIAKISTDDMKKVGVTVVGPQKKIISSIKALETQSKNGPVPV
How it was run: as §1

ERK1 = target: T4, ERK1 (Homo sapiens, UniProt P27361)
T4 construct: purchased Reaction Biology Corp
How it was run: as §1

GSK3b = target: T5, GSK3b (Homo sapiens, UniProt P49841)
T5 construct: purchased Reaction Biology Corp
How it was run: as §1

HPK1/MAP4K1 = target: T6, HPK1/MAP4K1 (Homo sapiens, UniProt Q92918)
T6 construct: purchased Reaction Biology Corp
How it was run: as §1

JAK1 = target: T7, JAK1 (Homo sapiens, UniProt P23458)
T7 construct: purchased Reaction Biology Corp
How it was run: as §1

JNK3 = target: T8, JNK3 (Homo sapiens, UniProt P53779)
T8 construct: purchased Reaction Biology Corp
How it was run: as §1

MARK3 = target: T9, MARK3 (Homo sapiens, UniProt P27448)
T9 construct: purchased Reaction Biology Corp
How it was run: as §1

NIK/MAP3K14 = target: T10, NIK/MAP3K14 (Homo sapiens, UniProt Q99558)
T10 construct: purchased Reaction Biology Corp
How it was run: as §1

NLK = target: T11, NLK (Homo sapiens, UniProt Q9UBE8)
T11 construct: purchased Reaction Biology Corp
T11 sequence (Q9UBE8 1-527): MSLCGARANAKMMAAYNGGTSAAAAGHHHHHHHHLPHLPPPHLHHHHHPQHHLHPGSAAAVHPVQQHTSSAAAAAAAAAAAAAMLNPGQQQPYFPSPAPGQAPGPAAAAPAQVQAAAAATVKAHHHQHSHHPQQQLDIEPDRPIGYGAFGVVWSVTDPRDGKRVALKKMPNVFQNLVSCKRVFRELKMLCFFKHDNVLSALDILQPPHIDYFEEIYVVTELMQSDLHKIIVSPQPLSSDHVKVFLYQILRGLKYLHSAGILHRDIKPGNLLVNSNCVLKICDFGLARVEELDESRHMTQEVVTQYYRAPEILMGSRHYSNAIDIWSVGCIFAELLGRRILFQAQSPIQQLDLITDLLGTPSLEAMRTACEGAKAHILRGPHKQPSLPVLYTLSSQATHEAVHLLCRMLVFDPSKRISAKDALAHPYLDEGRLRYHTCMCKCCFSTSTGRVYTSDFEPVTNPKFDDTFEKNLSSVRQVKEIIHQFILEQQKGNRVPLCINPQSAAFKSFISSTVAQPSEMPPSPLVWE
How it was run: as §1

PAK4 = target: T12, PAK4 (Homo sapiens, UniProt O96013)
T12 construct: purchased Reaction Biology Corp
How it was run: as §1

PIM3 = target: T13, PIM3 (Homo sapiens, UniProt Q86V86)
T13 construct: purchased Reaction Biology Corp
How it was run: as §1

RSK4 = target: T14, RSK4 (Homo sapiens, UniProt Q9UK32)
T14 construct: purchased Reaction Biology Corp
How it was run: as §1

YES/YES1 = target: T15, YES/YES1 (Homo sapiens, UniProt P07947)
T15 construct: purchased Reaction Biology Corp
How it was run: as §1

[1] = read-out: % Enzyme Activity (relative to DMSO controls) AVG
[2] = read-out: % Enzyme Activity (relative to DMSO controls) Data 1
[3] = read-out: % Enzyme Activity (relative to DMSO controls) Data 2

T15 sequence (P07947 whole entry): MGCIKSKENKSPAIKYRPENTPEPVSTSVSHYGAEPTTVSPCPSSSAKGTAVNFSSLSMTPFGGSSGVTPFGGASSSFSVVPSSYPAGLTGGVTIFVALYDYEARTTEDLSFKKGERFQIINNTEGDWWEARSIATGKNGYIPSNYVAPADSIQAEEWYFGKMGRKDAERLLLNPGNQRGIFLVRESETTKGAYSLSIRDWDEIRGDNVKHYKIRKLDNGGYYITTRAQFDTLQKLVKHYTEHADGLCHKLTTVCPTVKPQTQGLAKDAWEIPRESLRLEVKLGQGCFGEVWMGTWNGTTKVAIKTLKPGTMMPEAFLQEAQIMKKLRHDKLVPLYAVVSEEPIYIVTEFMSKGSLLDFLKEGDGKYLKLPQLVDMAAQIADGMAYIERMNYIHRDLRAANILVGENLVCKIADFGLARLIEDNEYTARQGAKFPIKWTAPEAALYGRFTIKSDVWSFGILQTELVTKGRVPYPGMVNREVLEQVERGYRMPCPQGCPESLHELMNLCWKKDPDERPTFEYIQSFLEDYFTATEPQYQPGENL
T14 sequence (Q9UK32 whole entry): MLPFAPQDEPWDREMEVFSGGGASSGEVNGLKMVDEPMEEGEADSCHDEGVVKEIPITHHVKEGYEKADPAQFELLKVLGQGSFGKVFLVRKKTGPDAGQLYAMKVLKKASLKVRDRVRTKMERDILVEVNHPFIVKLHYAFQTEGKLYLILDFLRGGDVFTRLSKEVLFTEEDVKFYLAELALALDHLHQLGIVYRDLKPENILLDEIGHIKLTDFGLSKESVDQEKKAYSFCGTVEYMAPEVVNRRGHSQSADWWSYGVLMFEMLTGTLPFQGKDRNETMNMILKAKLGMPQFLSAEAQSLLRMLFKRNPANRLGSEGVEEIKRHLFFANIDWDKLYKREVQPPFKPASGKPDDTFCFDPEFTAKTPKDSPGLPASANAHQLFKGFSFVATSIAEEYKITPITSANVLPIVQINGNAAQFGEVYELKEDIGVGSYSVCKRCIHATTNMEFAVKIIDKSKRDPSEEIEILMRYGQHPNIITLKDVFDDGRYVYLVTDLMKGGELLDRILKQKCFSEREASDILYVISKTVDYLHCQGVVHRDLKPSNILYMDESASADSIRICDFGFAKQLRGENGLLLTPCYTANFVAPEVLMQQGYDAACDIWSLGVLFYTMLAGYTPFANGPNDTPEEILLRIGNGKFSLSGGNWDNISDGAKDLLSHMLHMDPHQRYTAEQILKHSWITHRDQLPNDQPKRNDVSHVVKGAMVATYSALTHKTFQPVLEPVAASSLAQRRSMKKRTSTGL
T2 sequence (P49761 whole entry): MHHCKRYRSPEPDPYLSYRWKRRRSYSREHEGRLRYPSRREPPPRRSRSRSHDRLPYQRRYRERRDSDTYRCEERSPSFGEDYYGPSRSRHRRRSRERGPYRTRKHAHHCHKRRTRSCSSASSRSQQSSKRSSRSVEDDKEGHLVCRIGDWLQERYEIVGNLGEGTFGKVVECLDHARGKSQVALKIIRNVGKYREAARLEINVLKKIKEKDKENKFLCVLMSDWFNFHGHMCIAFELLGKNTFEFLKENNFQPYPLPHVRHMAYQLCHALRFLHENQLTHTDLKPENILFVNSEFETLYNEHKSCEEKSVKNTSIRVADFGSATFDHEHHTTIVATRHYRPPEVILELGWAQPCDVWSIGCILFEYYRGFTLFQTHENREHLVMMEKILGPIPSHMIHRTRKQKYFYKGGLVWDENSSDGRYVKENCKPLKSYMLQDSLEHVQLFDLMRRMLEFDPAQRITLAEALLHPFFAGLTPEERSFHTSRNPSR
T4 sequence (P27361 whole entry): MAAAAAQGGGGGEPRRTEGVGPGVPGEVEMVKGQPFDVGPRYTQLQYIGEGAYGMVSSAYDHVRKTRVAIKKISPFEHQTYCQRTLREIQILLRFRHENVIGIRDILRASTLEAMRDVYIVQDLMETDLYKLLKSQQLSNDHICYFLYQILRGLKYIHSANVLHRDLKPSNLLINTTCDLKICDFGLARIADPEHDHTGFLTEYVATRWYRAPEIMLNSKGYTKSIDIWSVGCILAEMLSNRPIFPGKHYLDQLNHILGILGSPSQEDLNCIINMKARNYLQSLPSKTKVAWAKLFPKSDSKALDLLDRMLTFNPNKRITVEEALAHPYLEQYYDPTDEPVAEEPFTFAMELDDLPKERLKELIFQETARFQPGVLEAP
T10 sequence (Q99558 whole entry): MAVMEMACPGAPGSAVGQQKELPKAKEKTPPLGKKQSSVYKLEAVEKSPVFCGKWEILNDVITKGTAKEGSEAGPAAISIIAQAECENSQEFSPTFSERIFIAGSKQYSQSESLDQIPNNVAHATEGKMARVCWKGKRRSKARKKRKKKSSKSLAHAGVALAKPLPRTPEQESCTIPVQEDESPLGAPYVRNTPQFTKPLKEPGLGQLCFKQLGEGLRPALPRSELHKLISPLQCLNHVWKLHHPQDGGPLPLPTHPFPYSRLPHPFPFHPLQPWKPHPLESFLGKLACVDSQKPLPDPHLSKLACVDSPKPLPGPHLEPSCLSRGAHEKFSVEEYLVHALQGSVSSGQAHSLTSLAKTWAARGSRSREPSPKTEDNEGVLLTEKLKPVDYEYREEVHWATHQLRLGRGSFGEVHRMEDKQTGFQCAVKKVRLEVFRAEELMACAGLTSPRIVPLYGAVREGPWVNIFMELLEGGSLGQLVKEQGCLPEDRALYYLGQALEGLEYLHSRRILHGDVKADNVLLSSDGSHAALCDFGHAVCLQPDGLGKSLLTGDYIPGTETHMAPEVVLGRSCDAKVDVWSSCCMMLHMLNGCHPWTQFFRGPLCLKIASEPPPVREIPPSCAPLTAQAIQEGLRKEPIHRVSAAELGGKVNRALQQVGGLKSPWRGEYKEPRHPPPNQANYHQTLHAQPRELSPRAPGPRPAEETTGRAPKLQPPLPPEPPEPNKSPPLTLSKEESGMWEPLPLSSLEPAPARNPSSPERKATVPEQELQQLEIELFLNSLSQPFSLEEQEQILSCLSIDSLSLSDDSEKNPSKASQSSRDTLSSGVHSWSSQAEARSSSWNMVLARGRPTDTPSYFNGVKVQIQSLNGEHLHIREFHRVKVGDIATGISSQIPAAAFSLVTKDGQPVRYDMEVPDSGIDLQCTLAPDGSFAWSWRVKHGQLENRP
T5 sequence (P49841 whole entry): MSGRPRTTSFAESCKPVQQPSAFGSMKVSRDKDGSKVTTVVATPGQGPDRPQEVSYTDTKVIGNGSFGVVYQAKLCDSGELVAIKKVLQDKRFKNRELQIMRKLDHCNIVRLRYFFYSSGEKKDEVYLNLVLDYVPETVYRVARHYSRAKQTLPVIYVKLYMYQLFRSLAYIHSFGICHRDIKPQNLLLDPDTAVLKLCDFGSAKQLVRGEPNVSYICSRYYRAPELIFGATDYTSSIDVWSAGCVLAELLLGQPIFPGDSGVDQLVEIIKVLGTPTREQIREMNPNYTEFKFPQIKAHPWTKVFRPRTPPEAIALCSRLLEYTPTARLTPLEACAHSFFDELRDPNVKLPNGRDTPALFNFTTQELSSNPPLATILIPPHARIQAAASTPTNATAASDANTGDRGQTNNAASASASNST
T1 sequence (P36894 24-532): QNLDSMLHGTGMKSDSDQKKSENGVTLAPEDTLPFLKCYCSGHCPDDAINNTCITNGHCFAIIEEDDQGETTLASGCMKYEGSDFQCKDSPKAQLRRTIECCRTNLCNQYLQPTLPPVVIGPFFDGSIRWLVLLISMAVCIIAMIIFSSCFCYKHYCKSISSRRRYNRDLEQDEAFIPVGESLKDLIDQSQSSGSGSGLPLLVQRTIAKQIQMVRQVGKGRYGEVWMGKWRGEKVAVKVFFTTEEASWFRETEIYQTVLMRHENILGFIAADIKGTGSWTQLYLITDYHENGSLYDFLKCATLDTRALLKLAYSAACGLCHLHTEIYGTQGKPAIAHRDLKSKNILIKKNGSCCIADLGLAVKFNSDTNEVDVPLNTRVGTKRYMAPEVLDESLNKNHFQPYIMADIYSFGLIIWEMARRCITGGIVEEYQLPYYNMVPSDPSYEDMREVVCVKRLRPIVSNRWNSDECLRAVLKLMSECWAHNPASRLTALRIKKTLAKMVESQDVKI
T9 sequence (P27448 whole entry): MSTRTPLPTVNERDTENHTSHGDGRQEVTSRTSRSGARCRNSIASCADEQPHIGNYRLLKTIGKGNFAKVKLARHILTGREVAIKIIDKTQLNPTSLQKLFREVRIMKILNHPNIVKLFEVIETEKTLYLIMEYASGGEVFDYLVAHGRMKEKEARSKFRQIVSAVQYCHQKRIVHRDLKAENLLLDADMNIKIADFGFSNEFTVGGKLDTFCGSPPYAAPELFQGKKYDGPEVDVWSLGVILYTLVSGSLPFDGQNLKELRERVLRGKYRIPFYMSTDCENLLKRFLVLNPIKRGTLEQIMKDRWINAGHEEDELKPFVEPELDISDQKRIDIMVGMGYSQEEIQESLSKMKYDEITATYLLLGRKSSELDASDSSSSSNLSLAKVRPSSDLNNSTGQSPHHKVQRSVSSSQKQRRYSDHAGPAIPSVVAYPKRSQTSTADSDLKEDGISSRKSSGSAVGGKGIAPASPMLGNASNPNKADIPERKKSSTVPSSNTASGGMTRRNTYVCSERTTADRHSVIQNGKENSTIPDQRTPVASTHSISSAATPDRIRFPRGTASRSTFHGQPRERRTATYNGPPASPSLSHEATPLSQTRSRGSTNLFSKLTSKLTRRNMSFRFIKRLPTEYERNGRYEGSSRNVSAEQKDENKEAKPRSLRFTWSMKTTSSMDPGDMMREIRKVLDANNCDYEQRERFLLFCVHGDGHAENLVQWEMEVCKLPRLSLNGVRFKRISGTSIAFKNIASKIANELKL

## CC(C)(C)C(=O)N1N=CC[C@H]1c1ccccc1 [GSK′963]
ALK3/BMPR1A; [1]
  remaining activity at 10 µM: 101%
ALK3/BMPR1A; [2]
  remaining activity at 10 µM: 103%
ALK3/BMPR1A; [3]
  remaining activity at 10 µM: 99.8%
CLK3; [1]
  remaining activity at 10 µM: 107%
CLK3; [2]
  remaining activity at 10 µM: 109%
CLK3; [3]
  remaining activity at 10 µM: 105%
EPHA3; [1]
  remaining activity at 10 µM: 91.8%
EPHA3; [2]
  remaining activity at 10 µM: 94.4%
EPHA3; [3]
  remaining activity at 10 µM: 89.2%
ERK1; [1]
  remaining activity at 10 µM: 102%
ERK1; [2]
  remaining activity at 10 µM: 98.8%
ERK1; [3]
  remaining activity at 10 µM: 104%
GSK3b; [1]
  remaining activity at 10 µM: 98.7%
GSK3b; [2]
  remaining activity at 10 µM: 98.8%
GSK3b; [3]
  remaining activity at 10 µM: 98.6%
HPK1/MAP4K1; [1]
  remaining activity at 10 µM: 100%
HPK1/MAP4K1; [2]
  remaining activity at 10 µM: 100%
HPK1/MAP4K1; [3]
  remaining activity at 10 µM: 101%
JAK1; [1]
  remaining activity at 10 µM: 98.8%
JAK1; [2]
  remaining activity at 10 µM: 97.9%
JAK1; [3]
  remaining activity at 10 µM: 99.8%
JNK3; [1]
  remaining activity at 10 µM: 100%
JNK3; [2]
  remaining activity at 10 µM: 101%
JNK3; [3]
  remaining activity at 10 µM: 100%
MARK3; [1]
  remaining activity at 10 µM: 100%
MARK3; [2]
  remaining activity at 10 µM: 102%
MARK3; [3]
  remaining activity at 10 µM: 98.3%
NIK/MAP3K14; [1]
  remaining activity at 10 µM: 98.2%
NIK/MAP3K14; [2]
  remaining activity at 10 µM: 93.4%
NIK/MAP3K14; [3]
  remaining activity at 10 µM: 103%
NLK; [1]
  remaining activity at 10 µM: 112%
NLK; [2]
  remaining activity at 10 µM: 111%
NLK; [3]
  remaining activity at 10 µM: 112%
PAK4; [1]
  remaining activity at 10 µM: 93%
PAK4; [2]
  remaining activity at 10 µM: 95.4%
PAK4; [3]
  remaining activity at 10 µM: 90.5%
PIM3; [1]
  remaining activity at 10 µM: 116%
PIM3; [2]
  remaining activity at 10 µM: 119%
PIM3; [3]
  remaining activity at 10 µM: 113%
RSK4; [1]
  remaining activity at 10 µM: 116%
RSK4; [2]
  remaining activity at 10 µM: 116%
RSK4; [3]
  remaining activity at 10 µM: 116%
YES/YES1; [1]
  remaining activity at 10 µM: 88.2%
YES/YES1; [2]
  remaining activity at 10 µM: 88.7%
YES/YES1; [3]
  remaining activity at 10 µM: 87.8%
